Where two headings read alike, the source gives them in different places.
Tested on: NCI-H1975 (EGFR-L858R-T790M) cells
Test: Inhibitory activity on proliferation of NCI-H1975 (EGFR-L858R-T790M) cells (CTG, 72 h)
Type: cell-based
Details: Homo sapiens
Protocol: NCI-H1975 (EGFR-L858R-T790M) and A431 (EGFR-WT) cells were purchased from ATCC and cultured in an incubator at 37° C. with 5% CO2, and the culture mediums were RPMI1640+10% FBS and DMEM+10% FBS, respectively. On the first day, NCI-H1975 (EGFR-L858R-T790M) and A431 (EGFR-WT) cells in the logarithmic phase were collected, and viable cells were counted using an automatic cell analyzer (countstar). The cell suspensions were adjusted with the culture mediums and plated on a 96-well cell culture plate at 1000 cells/well for NCI-H1975 (EGFR-L858R-T790M) cells and at 3000 cells/well for A431 cells. The next day, the culture mediums were aspirated, and 90 μL of fresh culture mediums and 10 μL of the compounds at different concentrations were added to each well, wherein the final concentration of DMSO in each well was 0.1%. The plate was cultured in the incubator at 37° C. with 5% CO2 for 72 hours. After 72 hours of drug treatment, 50 μL of CTG solution (promega, G7572), which was already pre-melted and equilibrated to room temperature, was added to each well, and the mixtures were uniformly mixed for 2 min using a microplate shaker. The plate was placed at room temperature for 10 min, and then […] signal values were measured using a microplate reader (PHERAstar FSX).
Surviving cells % was calculated based on Vsample/Vvehicle control×100%, wherein Vsample was the readout of the drug-treated group, and Vvehicle control was the average value of the vehicle control group. Using the origin 9.2 software and nonlinear regression model, S-shaped dose-survival curves were plotted, and IC50 values were calculated.

[1] = read-out: IC50 (value in brackets)

SMILES | IC50 (read-out: IC50 (class symbol)) [nM] | IC50 [1] [nM]
COc1cc(N2CCN(C3CCN(CC4CCN(c5ccc6c(c5)C(=O)N(C5CCC(=O)NC5=O)C6=O)CC4)CC3)CC2)c(C2CC2)cc1Nc1ncc(Cl)c(Nc2ccc3nccnc3c2P(C)(C)=O)n1 (centres unmarked) [Compound 26, 5-(4-((4-(4-(4-((5-chloro-4-((5-(dimethylphosphoryl)quinoxalin-6-yl)amino)pyrimidin-2-yl)amino)-2-cyclopropyl-5-methoxyphenyl)piperazin-1-yl)piperidin-1-yl)methyl)piperidin-1-yl)-2-(2,6-dioxopiperidin-3-yl)isoindoline-1,3-dione] | 100 to 500 | 
COc1cc(N2CCC(CN3CCC4(CC3)CCN(c3ccc(C(=O)NC5CCC(=O)NC5=O)nc3)CC4)CC2)c(-c2cnn(C)c2)cc1Nc1ncc(Br)c(Nc2ccc(-c3ccccc3)cc2P(C)(C)=O)n1 (centres unmarked) [Compound 69, 5-(9-((1-(4-((5-bromo-4-((3-(dimethylphosphoryl)-[1,1′-biphenyl]-4-yl)amino)pyrimidin-2-yl)amino)-5-methoxy-2-(1-methyl-1H-pyrazol-4-yl)phenyl)piperidin-4-yl)methyl)-3,9-diazaspiro[5.5]undecan-3-yl)-N-(2,6-dioxopiperidin-3-yl)picolinamide] | < 100 | 34
COc1cc(N2CCC(CN3CCC4(CC3)CCN(c3cc5c(cc3F)C(=O)N(C3CCC(=O)NC3=O)C5=O)CC4)CC2)c(-c2cnn(C)c2)cc1Nc1ncc(Cl)c(Nc2ccc(-c3ccccc3)cc2P(C)(C)=O)n1 (centres unmarked) [Compound 52, 5-(9-((1-(4-((5-chloro-4-((3-(dimethylphosphoryl)-[1,1′-biphenyl]-4-yl)amino)pyrimidin-2-yl)amino)-5-methoxy-2-(1-methyl-1H-pyrazol-4-yl)phenyl)piperidin-4-yl)methyl)-3,9-diazaspiro[5.5]undecan-3-yl)-2-(2,6-dioxopiperidin-3-yl)-6-fluoroisoindoline-1,3-dione] | < 100 | 84
COc1cc(N2CCC(CN3CCN(c4ccc(N5CCC(=O)NC5=O)cc4)CC3)CC2)c(-c2cnn(C)c2)cc1Nc1ncc(Cl)c(Nc2ccccc2P(C)(C)=O)n1 [Compound 132, 1-(4-(4-((1-(4-((5-chloro-4-((2-(dimethylphosphoryl)phenyl)amino)pyrimidin-2-yl)amino)-5-methoxy-2-(1-methyl-1H-pyrazol-4-yl)phenyl)piperidin-4-yl)methyl)piperazin-1-yl)phenyl)dihydropyrimidine-2,4(1H,3H)-dione] | 100 to 500 | 296
COc1cc(N2CCN(C[C@H]3CCN(c4ccc5c(c4)C(=O)N(C4CCC(=O)NC4=O)C5=O)C3)CC2)c(-c2cnn(C)c2)cc1Nc1ncc(Cl)c(Nc2ccccc2P(C)(C)=O)n1 (stereo partly drawn) [Compound 120, 5-((R)-3-((4-(4-((5-chloro-4-((2-(dimethylphosphoryl)phenyl)amino)pyrimidin-2-yl)amino)-5-methoxy-2-(1-methyl-1H-pyrazol-4-yl)phenyl)piperazin-1-yl)methyl)pyrrolidin-1-yl)-2-(2,6-dioxopiperidin-3-yl)isoindoline-1,3-dione] | < 100 | 25
COc1cc(N2CCC3(CCN(CC4CCN(c5ccc6c(c5)C(=O)N(C5CCC(=O)NC5=O)C6=O)CC4)CC3)CC2)c(-c2cnn(C)c2)cc1Nc1ncc(Br)c(Nc2ccc3nccnc3c2P(C)(C)=O)n1 (centres unmarked) [Trifluoroacetate of compound 20, 5-(4-((9-(4-((5-bromo-4-((5-(dimethylphosphoryl)quinoxalin-6-yl)amino)pyrimidin-2-yl)amino)-5-methoxy-2-(1-methyl-1H-pyrazol-4-yl)phenyl)-3,9-diazaspiro[5.5]undecan-3-yl)methyl)piperidin-1-yl)-2-(2,6-dioxopiperidin-3-yl)isoindoline-1,3-dione] | < 100 | 14
COc1cc(N2CCC(C3CCN(CC4CCN(c5ccc6c(c5)C(=O)N(C5CCC(=O)NC5=O)C6=O)CC4)CC3)CC2)c(-c2cnn(C)c2)cc1Nc1ncc(Cl)c(Nc2ccc3nccnc3c2P(C)(C)=O)n1 (centres unmarked) [Trifluoroacetate of compound 13, 5-(4-((1′-(4-((5-chloro-4-((5-(dimethylphosphoryl)quinoxalin-6-yl)amino)pyrimidin-2-yl)amino)-5-methoxy-2-(1-methyl-1H-pyrazol-4-yl)phenyl)-[4,4′-bipiperidin]-1-yl)methyl)piperidin-1-yl)-2-(2,6-dioxopiperidin-3-yl)isoindoline-1,3-dione] | < 100 | 37
COc1cc(N2CCC(N3CCC(CN4CCN(c5ccc6c(c5)C(=O)N(C5CCC(=O)NC5=O)C6=O)CC4)CC3)CC2)c(-c2cnn(C)c2)cc1Nc1ncc(Cl)c(Nc2ccc3nccnc3c2P(C)(C)=O)n1 (centres unmarked) [Compound 8, 5-(4-((1′-(4-((5-chloro-4-((5-(dimethylphosphoryl)quinoxalin-6-yl)amino)pyrimidin-2-yl)amino)-5-methoxy-2-(1-methyl-1H-pyrazol-4-yl)phenyl)-[1,4′-bipiperidin]-4-yl)methyl)piperazin-1-yl)-2-(2,6-dioxopiperidin-3-yl)isoindoline-1,3-dione] | < 100 | 34
COc1cc(N2CCC(CN3CCN(c4ccc(C5CCC(=O)NC5=O)cc4)CC3)CC2)c(-c2cnn(C)c2)cc1Nc1ncc(Cl)c(Nc2ccccc2P(C)(C)=O)n1 (centres unmarked) [Compound 135, 3-(4-(4-((1-(4-((5-chloro-4-((2-(dimethylphosphoryl)phenyl)amino)pyrimidin-2-yl)amino)-5-methoxy-2-(1-methyl-1H-pyrazol-4-yl)phenyl)piperidin-4-yl)methyl)piperazin-1-yl)phenyl)piperidine-2,6-dione] | < 100 | 82

Further lines, results first:

IC50 (read-out: IC50 (class symbol)) [nM] | IC50 [1] [nM] | SMILES
< 100 | 42 | COc1cc(N2CCC(N3CCC(CN4CCN(c5ccc6c(c5)C(=O)N(C5CCC(=O)NC5=O)C6=O)CC4)CC3)CC2)c(-c2cnn(C)c2)cc1Nc1ncc(Br)c(Nc2ccc3nccnc3c2P(C)(C)=O)n1 (centres unmarked) [Trifluoroacetate of compound 19, 5-(4-((1′-(4-((5-bromo-4-((5-(dimethylphosphoryl)quinoxalin-6-yl)amino)pyrimidin-2-yl)amino)-5-methoxy-2-(1-methyl-1H-pyrazol-4-yl)phenyl)-[1,4′-bipiperidin]-4-yl)methyl)piperazin-1-yl)-2-(2,6-dioxopiperidin-3-yl)isoindoline-1,3-dione]
< 100 | 43 | COc1cc(N2CCC(CN3CCN(c4ccc(C5CCC(=O)NC5=O)cc4)CC3)CC2)c(-c2cnn(C)c2)cc1Nc1ncc(Cl)c(Nc2ccc(-c3ccccc3)cc2P(C)(C)=O)n1 (centres unmarked) [Compound 155, 3-(4-(4-((1-(4-((5-chloro-4-((3-(dimethylphosphoryl)-[1,1′-biphenyl]-4-yl)amino)pyrimidin-2-yl)amino)-5-methoxy-2-(1-methyl-1H-pyrazol-4-yl)phenyl)piperidin-4-yl)methyl)piperazin-1-yl)phenyl)piperidine-2,6-dione]
100 to 500 | 214 | COc1cc(N2CCC(CN3CCN(c4ccc(N5CCC(=O)NC5=O)cc4)CC3)CC2)c(-c2cnn(C)c2)cc1Nc1ncc(Cl)c(Nc2ccc(C3CC3)cc2P(C)(C)=O)n1 [Compound 131, 1-(4-(4-((1-(4-((5-chloro-4-((4-cyclopropyl-2-(dimethylphosphoryl)phenyl)amino)pyrimidin-2-yl)amino)-5-methoxy-2-(1-methyl-1H-pyrazol-4-yl)phenyl)piperidin-4-yl)methyl)piperazin-1-yl)phenyl)dihydropyrimidine-2,4(1H,3H)-dione]
< 100 | 52 | COc1cc(N2CCC(N3CCN(CC4CCN(c5cc6c(cc5F)C(=O)N(C5CCC(=O)NC5=O)C6=O)CC4)CC3)CC2)c(-c2cnn(C)c2)cc1Nc1ncc(Cl)c(Nc2ccc3nccnc3c2P(C)(C)=O)n1 (centres unmarked) [Compound 5, 5-(4-((4-(1-(4-((5-chloro-4-((5-(dimethylphosphoryl)quinoxalin-6-yl)amino)pyrimidin-2-yl)amino)-5-methoxy-2-(1-methyl-1H-pyrazol-4-yl)phenyl)piperidin-4-yl)piperazin-1-yl)methyl)piperidin-1-yl)-2-(2,6-dioxopiperidin-3-yl)-6-fluoroisoindoline-1,3-dione]
< 100 | 73 | COc1cc(N2CCC(CN3CCN(c4ccc(C5CCC(=O)NC5=O)c(F)c4)CC3)CC2)c(-c2cnn(C)c2)cc1Nc1ncc(Cl)c(Nc2ccc(C3CC3)cc2P(C)(C)=O)n1 (centres unmarked) [Compound 153, 3-(4-(4-((1-(4-((5-chloro-4-((4-cyclopropyl-2-(dimethylphosphoryl)phenyl)amino)pyrimidin-2-yl)amino)-5-methoxy-2-(1-methyl-1H-pyrazol-4-yl)phenyl)piperidin-4-yl)methyl)piperazin-1-yl)-2-fluorophenyl)piperidine-2,6-dione]
100 to 500 | 118 | COc1cc(N2CCC3(CCN(Cc4cccc(NC5CCC(=O)NC5=O)c4)CC3)CC2)c(-c2cnn(C)c2)cc1Nc1ncc(Cl)c(Nc2ccc(-c3ccccc3)cc2P(C)(C)=O)n1 (centres unmarked) [Compound 130, 3-((3-((9-(4-((5-chloro-4-((3-(dimethylphosphoryl)-[1,1′-biphenyl]-4-yl)amino)pyrimidin-2-yl)amino)-5-methoxy-2-(1-methyl-1H-pyrazol-4-yl)phenyl)-3,9-diazaspiro[5.5]undecan-3-yl)methyl)phenyl)amino)piperidine-2,6-dione]
